Data as given in paper PMC5951806, “Rapid labelling and covalent inhibition of intracellular native proteins using ligand-directed N-acyl-N-alkyl sulfonamide” (Nature Communications, 2018).

Biological target: T1, heat shock protein 75 kDa, mitochondrial (TRAP1) (Homo sapiens, UniProt Q12931)
T1 sequence (Q12931 60-704): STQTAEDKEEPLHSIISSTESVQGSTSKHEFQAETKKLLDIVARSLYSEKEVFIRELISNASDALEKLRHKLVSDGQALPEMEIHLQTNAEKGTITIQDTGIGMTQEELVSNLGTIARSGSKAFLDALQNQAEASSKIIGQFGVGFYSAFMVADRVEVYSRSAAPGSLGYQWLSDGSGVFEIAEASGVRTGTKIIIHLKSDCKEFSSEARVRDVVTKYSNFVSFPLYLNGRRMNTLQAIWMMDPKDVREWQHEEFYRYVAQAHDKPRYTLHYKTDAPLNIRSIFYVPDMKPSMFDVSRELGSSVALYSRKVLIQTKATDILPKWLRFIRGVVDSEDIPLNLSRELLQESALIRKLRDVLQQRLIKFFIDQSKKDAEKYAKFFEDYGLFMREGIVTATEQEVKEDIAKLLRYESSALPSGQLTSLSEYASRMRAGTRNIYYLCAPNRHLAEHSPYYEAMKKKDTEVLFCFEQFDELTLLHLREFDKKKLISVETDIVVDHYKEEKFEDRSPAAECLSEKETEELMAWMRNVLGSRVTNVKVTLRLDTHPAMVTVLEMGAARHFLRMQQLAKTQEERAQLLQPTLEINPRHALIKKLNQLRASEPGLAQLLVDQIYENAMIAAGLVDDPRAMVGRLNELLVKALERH
Experiment: TMT LC-MSMS of 11-labelled proteins
Assay type: cell-based

CC(=O)Oc1ccc2c(c1)Oc1cc(OC(C)=O)ccc1C21OC(=O)c2cc(C(=O)NCCOCCOCCNC(=O)CCCC(=O)N(CC#N)S(=O)(=O)c3ccc(C(=O)NCCCn4c(Sc5cc6c(cc5I)OCO6)nc5c(N)ncnc54)cc3)ccc21 [compound 11]
Abundance Ratio: (11) / (11 with PU-H71) (Exp3, TRAP1): 0.787 | Abundance Ratio: (11) / (DMSO) (Exp3, TRAP1): 2.947 | Abundances (Grouped): 11 (Exp3, TRAP1): 28 | Abundances (Grouped): 11 with PU-H71 (Exp3, TRAP1, with PU-H71): 35.6 | Abundance Ratio: (11) / (DMSO) (sheet Merged, SKBR3 cells, 11 0.5 µM 3 h vs DMSO): 2.947 | Abundance Ratio: (11) / (11 with PU-H71) (sheet Merged, SKBR3 cells, 11 0.5 µM 3 h vs with PU-H71 10 µM): 0.787
